Results published in article PMC8121951, “Structure-based engineering of substrate specificity for pinoresinol-lariciresinol reductases” (Nature Communications, 2021).
Substitutions are numbered along the chain they refer to. Names may count otherwise.

Experiments:
[1] = target: T1, AtPrR1 (Arabidopsis thaliana, UniProt Q9FVQ6); assay: X-ray crystal structure, co-crystal; assay type: binding; settings: wild type
T1 construct: gene PRR1; full-length, pET-duet-1, E. coli Rosetta (DE3), Ni-NTA and Superdex-200; homodimer
T1 sequence (Q9FVQ6 1-317): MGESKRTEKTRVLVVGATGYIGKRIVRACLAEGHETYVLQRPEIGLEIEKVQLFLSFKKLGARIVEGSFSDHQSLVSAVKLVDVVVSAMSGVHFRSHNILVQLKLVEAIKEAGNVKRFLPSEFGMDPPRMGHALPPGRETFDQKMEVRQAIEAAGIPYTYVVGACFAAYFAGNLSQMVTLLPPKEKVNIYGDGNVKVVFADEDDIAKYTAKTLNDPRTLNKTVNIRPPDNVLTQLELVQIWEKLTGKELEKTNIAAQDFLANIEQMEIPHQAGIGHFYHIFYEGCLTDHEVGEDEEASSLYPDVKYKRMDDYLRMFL

[2] = target: T2, IiPLR1 (Isatis tinctoria, UniProt I6LRS1); assay: X-ray crystal structure, co-crystal; assay type: binding; settings: wild type
T2 construct: full-length, pET-duet-1, E. coli Rosetta (DE3), Ni-NTA and Superdex-200; homodimer
T2 sequence (I6LRS1 1-317): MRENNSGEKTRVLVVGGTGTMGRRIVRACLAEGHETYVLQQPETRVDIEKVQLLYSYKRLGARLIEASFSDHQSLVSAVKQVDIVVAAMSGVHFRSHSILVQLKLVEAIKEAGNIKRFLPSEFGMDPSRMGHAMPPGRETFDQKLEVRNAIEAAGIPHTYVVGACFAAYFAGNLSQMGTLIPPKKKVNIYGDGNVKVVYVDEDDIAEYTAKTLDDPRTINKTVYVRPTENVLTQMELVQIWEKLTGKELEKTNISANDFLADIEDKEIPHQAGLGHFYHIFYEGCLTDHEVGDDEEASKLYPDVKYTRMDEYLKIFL

[3] = target: T3, AtPrR2 (Arabidopsis thaliana, UniProt Q9SVP6, N98S); assay: LC-MS product conversion; assay type: biochemical; settings: NADPH 150 μM, Tris-HCl pH 7.0, 30 °C, 30 min
T3 construct: gene PRR2; full-length, pET-duet-1, E. coli Rosetta (DE3), Ni-NTA and Superdex-200; homodimer
T3 sequence (Q9SVP6 1-317 N98S): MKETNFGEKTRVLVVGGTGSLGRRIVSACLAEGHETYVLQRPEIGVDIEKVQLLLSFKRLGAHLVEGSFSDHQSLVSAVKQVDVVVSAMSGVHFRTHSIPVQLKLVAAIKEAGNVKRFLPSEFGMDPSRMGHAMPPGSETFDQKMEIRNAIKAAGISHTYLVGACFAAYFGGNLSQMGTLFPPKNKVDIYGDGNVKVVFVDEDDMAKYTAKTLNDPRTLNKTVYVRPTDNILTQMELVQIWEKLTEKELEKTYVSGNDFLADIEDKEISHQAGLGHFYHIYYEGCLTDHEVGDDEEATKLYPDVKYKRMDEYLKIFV

[4] = target: T4, AtPrR2 (Arabidopsis thaliana, UniProt Q9SVP6); assay: X-ray crystal structure, co-crystal; assay type: binding; settings: wild type, 1.6 Å
T4 construct: gene PRR2; full-length, pET-duet-1, E. coli Rosetta (DE3), Ni-NTA and Superdex-200; homodimer
T4 sequence (Q9SVP6 1-317): T3 sequence (Q9SVP6 1-317 N98S) with S98N

[5] = target: Isatis indigotica pinoresinol-lariciresinol reductase 1 (Isatis indigotica); assay: crystal structure; sitting-drop vapour diffusion at 20 or 4 °C, protein 5-10 mg/mL; apo, with NADP+ (1:5) or with NADP+ and substrate/product (1:5:10); homodimer seen in the crystal
[6] = substrate: COc1cc(CC2COC(c3ccc(O)c(OC)c3)C2CO)ccc1O; assay: LC-MS substrate consumption, Lineweaver-Burk; assay type: biochemical, Isatis tinctoria; settings: NADPH 150 μM, 50 mM Tris-HCl pH 7.0, 10% glycerol, 30 °C, racemic substrate
Excerpt: (§1) LC-MS substrate consumption, Lineweaver-Burk on IiPLR1

[7] = substrate: COc1cc(C2OCC3C(c4ccc(O)c(OC)c4)OCC23)ccc1O; assay: LC-MS substrate consumption, Lineweaver-Burk; assay type: biochemical, Isatis tinctoria; settings: NADPH 150 μM, 50 mM Tris-HCl pH 7.0, 10% glycerol, 30 °C, racemic substrate
Excerpt: as §1

[8] = target: the molecule itself; assay: crystal structure; sitting-drop vapour diffusion at 20 or 4 °C, protein 5-10 mg/mL; apo, with NADP+ (1:5) or with NADP+ and substrate/product (1:5:10); homodimer seen in the crystal

COc1cc(C[C@@H](CO)[C@H](CO)Cc2ccc(O)c(OC)c2)ccc1O [-SEC, (−)-secoisolariciresinol]
X-ray crystal structure, co-crystal ([1]; with NADP+, 2.0 Å): 7CSF (AtPrR1 with NADP^+ and (−)secoisolariciresinol) | X-ray crystal structure, co-crystal ([2]; with NADP+, 2.6 Å): 7CS8 (IiPLR1 with NADP^+ and (−)secoisolariciresinol)

COc1cc(C[C@H]2CO[C@H](c3ccc(O)c(OC)c3)[C@H]2CO)ccc1O [lariciresinol]
LC-MS product conversion [3]: AtPrR2 mutant N98S could utilize lariciresinol to produce secoisolariciresinol

COc1cc(C[C@H](CO)[C@@H](CO)Cc2ccc(O)c(OC)c2)ccc1O [+SEC, (+)-secoisolariciresinol]
X-ray crystal structure, co-crystal ([2]; with NADP+, 2.3 Å): 7CS7 (IiPLR1 with NADP^+ and (+)secoisolariciresinol)

COc1cc(C[C@H]2CO[C@H](c3ccc(O)c(OC)c3)[C@H]2CO)ccc1O [+LAR, (+)-lariciresinol]
X-ray crystal structure, co-crystal ([1]; with NADP+, 1.8 Å): 7CSD (AtPrR1 with NADP^+ and (+)lariciresinol)

COc1cc([C@H]2OC[C@H]3[C@@H]2CO[C@@H]3c2ccc(O)c(OC)c2)ccc1O [+PIN, (+)-pinoresinol]
X-ray crystal structure, co-crystal ([4]; with NADP+): 7CSH (AtPrR2 with NADP^+ and (+)pinoresinol) | X-ray crystal structure, co-crystal ([1]; with NADP+, 2.0 Å): 7CSB (AtPrR1 with NADP^+ and (+)pinoresinol) | X-ray crystal structure, co-crystal ([2]; with NADP+, 2.3 Å): 7CS4 (IiPLR1 with NADP^+ and (+)pinoresinol)

NC(=O)c1ccc[n+]([C@@H]2O[C@H](COP(=O)(O)OP(=O)(O)OC[C@H]3O[C@@H](n4cnc5c(N)ncnc54)[C@H](OP(=O)(O)O)[C@@H]3O)[C@@H](O)[C@H]2O)c1 [NAP, NADP^+]
X-ray crystal structure, co-crystal ([4]; with (+)-pinoresinol): 7CSH (AtPrR2 with NADP^+ and (+)pinoresinol) | X-ray crystal structure, co-crystal ([1]; 2.0 Å): 7CSA (AtPrR1 with NADP^+) | X-ray crystal structure, co-crystal ([2]; 2.4 Å): 7CS3 (IiPLR1 with NADP^+)

COc1cc([C@@H]2OC[C@@H]3[C@H]2CO[C@H]3c2ccc(O)c(OC)c2)ccc1O [-PIN, (−)-pinoresinol]
X-ray crystal structure, co-crystal ([1]; with NADP+, 2.5 Å): 7CSC (AtPrR1 with NADP^+ and (−)pinoresinol) | X-ray crystal structure, co-crystal ([2]; with NADP+, 2.1 Å): 7CS5 (IiPLR1 with NADP^+ and (−)pinoresinol)

COc1cc(C[C@@H]2CO[C@@H](c3ccc(O)c(OC)c3)[C@@H]2CO)ccc1O [-LAR, (−)-lariciresinol]
X-ray crystal structure, co-crystal ([1]; with NADP+, 2.5 Å): 7CSE (AtPrR1 with NADP^+ and (−)lariciresinol) | X-ray crystal structure, co-crystal ([2]; with NADP+, 2.2 Å): 7CS6 (IiPLR1 with NADP^+ and (−)lariciresinol)

Isatis indigotica pinoresinol-lariciresinol reductase 1 (enzyme)
stoichiometry N [5]: 2

B1: IiPLR1 (Isatis tinctoria; V46A) (protein)
chain: T2 sequence (I6LRS1 1-317) with V46A
notes: full-length, pET-duet-1, E. coli Rosetta (DE3), Ni-NTA and Superdex-200; homodimer
Km [6]: 26.5 ± 0.60 µM | Vmax [6]: 0.023 µM/min | kcat [6]: 0.0135 ± 0.00075 s⁻¹ | kcat/Km [6]: 517 ± 33.3 M⁻¹ s⁻¹ | Km [7]: 29.4 ± 1.62 µM | Vmax [7]: 3.22 µM/min | kcat [7]: 1.91 ± 0.402 s⁻¹ | kcat/Km [7]: 64700 ± 10800 M⁻¹ s⁻¹

B2: Arabidopsis thaliana pinoresinol reductase 2 (enzyme, UniProt Q9SVP6 1-317, looked up)
chain: T3 sequence (Q9SVP6 1-317 N98S) with S98N
notes: Head-to-tail homodimer in both crystal forms (apo); with NADP+ and (+)-pinoresinol); also called AtPrR2; PrR; source: E. coli Rosetta (DE3), purified (Ni-NTA, Superdex-200); not shown: His tag (inferred from the Ni-NTA purification)
stoichiometry N [8]: 2

B3: Arabidopsis thaliana pinoresinol reductase 1 (enzyme, UniProt Q9FVQ6 1-317, looked up)
chain: T1 sequence (Q9FVQ6 1-317)
notes: Head-to-tail homodimer in all crystal forms; crystallised apo, with NADP+, or with NADP+ and substrate/product; also called AtPrR1; PrR; source: E. coli Rosetta (DE3), purified (Ni-NTA, Superdex-200); not shown: His tag (inferred from the Ni-NTA purification)
stoichiometry N [8]: 2
